pIC50: −log10 of the molar value.
Experiments:
HDAC in cells = assay: Cellular HDAC inhibition (cellular histone hyperacetylation / cytotoxicity assays; Table 1 only says Cellular IC50); assay type: cell-based; settings: transformed cell lines (e.g. HeLa, A549, MCF-7); cell line not given
Procedure: 2) Cellular Histone Hyperacetylation Assays:
These two secondary assays evaluate a compound's ability to inhibit HDAC in cells by measuring cellular histone acetylation levels. The cytoblot facilitates quantitative EC50 information for cellular HDAC inhibition. Transformed cell lines (e.g. HeLa, A549, MCF-7) are cultured under standard media and culture conditions prior to plating.
Cells (approx. 2,500/well) are allowed to adhere 10-24 hours to wells of a 384-well Greiner PS assay plate in media containing 1-5% serum. Cells are treated with appropriate compound and specific concentrations for 0 to 24 hours. Cells are washed once with PBS (60 μL) and then fixed (95% ethanol, 5% acetic acid or 2% PFA) for 1 minute at RT (30 μL). Cells are blocked with 1% BSA for 1 hour and washed and stained with antibody (e.g. anti-Acetylated Histone H3, Upstate Biotechnology), followed by washing and incubation with an appropriate secondary antibody conjugated to HRP or fluorophore. For luminescence assays, signal is generated using Luminol substrate (Santa Cruz Biotechnology) and detected using an Aquest plate reader (Molecular Devices).
3) Differential Cytotoxicity Assay:
HDAC inhibitors display differential cytotoxicity toward certain transformed cell lines. Cells are cultured according to standard ATCC recommended conditions that are appropriate to each cell type. Compounds were tested for their ability to kill different cell types (normal and transformed) using the ATPlite luminescence ATP detection assay system (Perkin Elmer). Assays are run in either 384-well or 1536-well Greiner PS plates. Cells (30 μL or 5 μL, respectively) are dispensed using either multichannel pipette for 384-well plates, or proprietary Kalypsys bulk liquid dispenser for 1536-well plates. Compounds added using proprietary pin-transfer device (500 nL or 5 nL) and incubated 5 to 30 hours prior to analysis. Luminescence is measured using Aquest plate reader (Molecular Devices).

HDAC = assay: In vitro HDAC-inhibition assay (Fluor de Lys fluorescent activity assay); assay type: biochemical; settings: HDAC enzyme source (e.g. nuclear extract or immunopurified HDAC complexes), Fluor de Lys substrate, 30 minutes RT
Procedure: 1) In vitro HDAC-inhibition Assay:
This assay measures a compound's ability to inhibit acetyl-lysine deacetylation in vitro and was used as both a primary screening method as well as for IC50 determinations of confirmed inhibitors. The assay is performed in vitro using an HDAC enzyme source (e.g. partially purified nuclear extract or immunopurified HDAC complexes) and a proprietary fluorescent substrate/developer system (HDAC Quantizyme Fluor de Lys Fluorescent Activity Assay, BIOMOL). The assay is run in 1,536-well Greiner white-bottom plates using the following volumes and order of addition: • Step 1: Enzyme (2.5 μL) source added to plate (from refrigerated container) • Step 2: Compounds (50 nL) added with pin transfer device • Step 3: Fluor de Lys (2.5 μL) substrate added, incubate at RT, 30 minutes • Step 4: Developer (5 μL) solution is added (containing TSA), to stop reaction • Step 5: Plate Reader—data collection
The deacetylated fluorophore is excited with 360 nm light and the emitted light (460 nm) is detected on an automated fluorometric plate reader (Aquest, Molecular Devices).

| SMILES | pIC50 (HDAC) | pIC50 (HDAC in cells) |
| --- | --- | --- |
| CC(=O)SCC(=O)c1ccc(NS(=O)(=O)c2ccc(OCCCN3CCOCC3)cc2)nc1 [Example 11, Thioacetic acid S-(2-{6-[4-(3-morpholin-4-yl-propoxy)-benzenesulfonylamino]-pyridin-3-yl}-2-oxo-ethyl) ester] | ≥ 6.00 | ≥ 6.00 |
| CC(=O)SCC(=O)c1ccc(NS(=O)(=O)c2ccc(OCCCc3cccnc3)cc2)cc1 [Example 16, Thioacetic acid S-(2-oxo-2-{4-[4-(3-pyridin-3-yl-propoxy)-benzenesulfonylamino]-phenyl}-ethyl) ester] | ≥ 6.00 | < 6.00 |
| CC(=O)SCC(=O)c1ccc(NS(=O)(=O)c2ccc(OCc3ccccn3)cc2)cc1 [Example 15, Thioacetic acid S-(2-oxo-2-{4-[4-(pyridin-2-ylmethoxy)-benzenesulfonylamino]-phenyl}-ethyl) ester] | ≥ 6.00 | ≥ 6.00 |

More lines, main results first:

| pIC50 (HDAC) | SMILES | pIC50 (HDAC in cells) |
| --- | --- | --- |
| ≥ 6.00 | CC(=O)SCC(=O)c1ccc(NS(=O)(=O)c2ccc(OCC3CCCN(C)C3)cc2)nc1 (stereo not drawn) [Example 31, Thioacetic acid S-(2-{6-[4-(1-methyl-piperidin-3-ylmethoxy)-benzenesulfonylamino]-pyridin-3-yl}-2-oxo-ethyl) ester] | ≥ 6.00 |
| ≥ 6.00 | CC(=O)SCC(=O)c1ccc(NS(=O)(=O)c2ccc(OC3CCCN(C)C3)cc2)nc1 (stereo not drawn) [Example 30, Thioacetic acid S-(2-{6-[4-(1-methyl-piperidin-3-yloxy)-benzenesulfonylamino]-pyridin-3-yl}-2-oxo-ethyl) ester] | ≥ 6.00 |
| ≥ 6.00 | CC(=O)SCC(=O)c1ccc(NS(=O)(=O)c2ccc(OCCN3CCCC3)cc2)nc1 [Example 26, Thioacetic acid S-(2-oxo-2-{6-[4-(2-pyrrolidin-1-yl-ethoxy)-benzenesulfonylamino]-pyridin-3-yl}-ethyl) ester] | ≥ 6.00 |
